Key:
Experiment in all cases: General post-emergent herbicidal activity, foliar application
Assay type in all cases: in vivo
[1] = test system: Zea mays L. (corn); conditions: 336 h, scored after 14 days, read-out: % Visual Growth Reduction ZEAMX; for plant injury at 35 g/ha: 35 g ai/ha; for plant injury at 70 g/ha: 70 g ai/ha; for plant injury at 140 g/ha: 140 g ai/ha; for plant injury at 280 g/ha: 280 g ai/ha
Description: (§1) A weighed amount, determined by the highest rate to be tested, of each test compound was placed in a 25 mL glass vial and was dissolved in 4 mL of a 97:3 v/v (volume/volume) mixture of acetone and dimethyl sulfoxide to obtain concentrated stock solutions which will be referred to as General Purpose Solvent. […] The concentrated stock solutions obtained were diluted with 20 mL of an aqueous mixture containing water, General Purpose Solvent, isopropyl alcohol, Atplus 411F crop oil concentrate, and Triton X-155 surfactant in a 46:42:12:1.0:0.02 v/v ratio to obtain spray solutions containing the highest application rates. Additional application rates were obtained by serial dilution of 12 mL of the high rate solution into a solution containing 2 mL of 97:3 v/v (volume/volume) mixture of acetone and dimethyl sulfoxide and 10 mL of an aqueous mixture containing water, General Purpose Solvent, isopropyl alcohol, Atplus 411F crop oil concentrate, and Triton X-155 surfactant in a 46:42:12:1.0:0.02 v/v ratio to obtain 1/2×, 1/4×, 1/8× and 1/16× rates of the high rate. […] Control plants were sprayed in the same manner with the solvent blank.
(§2) The treated plants and control plants were placed in a greenhouse as described above and watered by sub-irrigation to prevent wash-off of the test compounds. After 14 days, the condition of the test plants as compared with that of the untreated plants was determined visually and scored on a scale of 0 to 100 percent where 0 corresponds to no injury and 100 corresponds to complete kill.

[2] = test system: Oryza sativa L. (rice); conditions: scored after 14 days; for plant injury at 35 g/ha / plant injury at 70 g/ha / plant injury at 140 g/ha / plant injury at 280 g/ha: Oryza sativa, 336 h, read-out: % Visual Growth Reduction ORYSA; for plant injury at 70 g/ha: 70 g ai/ha; for plant injury at 140 g/ha: 140 g ai/ha; for plant injury at 280 g/ha: 280 g ai/ha
Description: as §1, §2

[3] = test system: Helianthus annuus L. (sunflower, common); conditions: for pest or weed control at 70 g/ha: 70 g ai/ha; for pest or weed control at 140 g/ha: 140 g ai/ha; for pest or weed control at 280 g/ha: 280 g ai/ha; for GR80 Value HELAN: calculated by probit analysis, dose for 80% visual injury, may be extrapolated
Description: as §1, §2
(§3) By applying the well-accepted probit analysis as described by J. Berkson in […], 48, 565 (1953) and by D. Finney in “Probit Analysis” Cambridge University Press (1952), the dose response data gathered as expressed above can be used to calculate GR20, GR50 and GR80 values, which are defined as growth reduction factors that correspond to the effective dose of herbicide required to kill or control 20 percent, 50 percent or 80 percent, respectively, of a target plant. Data not expressed in Table A may have been used to calculate some of the GR80 values in Table B. In some cases, the GR80 values may be extrapolations calculated based on the slope of the dose response curve for individual compounds listed in Table B.

[4] = test system: Viola tricolor L. (pansy); conditions: for pest or weed control at 70 g/ha: 70 g ai/ha; for pest or weed control at 140 g/ha: 140 g ai/ha; for pest or weed control at 280 g/ha: 280 g ai/ha; for GR80 Value VIOTR: calculated by probit analysis, may be extrapolated
Description: as §1, §2, §3

[5] = test system: Amaranthus retroflexus L. (pigweed, redroot); conditions: for pest or weed control at 70 g/ha: 70 g ai/ha; for pest or weed control at 280 g/ha: 280 g ai/ha; for GR80 Value AMARE: calculated by probit analysis, dose for 80% visual injury, may be extrapolated
Description: as §1, §2, §3

[6] = test system: Euphorbia heterophylla L. (poinsettia, wild); conditions: for pest or weed control at 35 g/ha / pest or weed control at 70 g/ha / pest or weed control at 140 g/ha / pest or weed control at 280 g/ha: Euphorbia heterophylla, 336 h, foliar post-emergent, scored after 14 days, read-out: % Visual Growth Reduction EPHHL; for pest or weed control at 35 g/ha: 35 g ai/ha; for pest or weed control at 70 g/ha: 70 g ai/ha; for pest or weed control at 140 g/ha: 140 g ai/ha; for pest or weed control at 280 g/ha: 280 g ai/ha; for GR80 Value EPHHL: calculated by probit analysis, dose for 80% visual injury, may be extrapolated
Description: as §1, §2, §3

[7] = test system: Chenopodium album L. (lambsquarters, common); conditions: for pest or weed control at 35 g/ha / pest or weed control at 70 g/ha / pest or weed control at 140 g/ha / pest or weed control at 280 g/ha: Chenopodium album, 336 h, foliar post-emergent, scored after 14 days, read-out: % Visual Growth Reduction CHEAL; for pest or weed control at 35 g/ha: 35 g ai/ha; for pest or weed control at 70 g/ha: 70 g ai/ha; for pest or weed control at 140 g/ha: 140 g ai/ha; for pest or weed control at 280 g/ha: 280 g ai/ha; for GR80 Value CHEAL: calculated by probit analysis, dose for 80% visual injury, may be extrapolated
Description: as §1, §2, §3

[8] = test system: Echinochloa crus-galli (L.) Beauv. (barnyardgrass); conditions: for pest or weed control at 35 g/ha / pest or weed control at 70 g/ha / pest or weed control at 140 g/ha / pest or weed control at 280 g/ha: Echinochloa crus-galli, 336 h, foliar post-emergent, scored after 14 days, read-out: % Visual Growth Reduction ECHCG; for pest or weed control at 35 g/ha: 35 g ai/ha; for pest or weed control at 70 g/ha: 70 g ai/ha; for pest or weed control at 140 g/ha: 140 g ai/ha; for pest or weed control at 280 g/ha: 280 g ai/ha; for GR80 Value ECHCG: calculated by probit analysis, may be extrapolated
Description: as §1, §2, §3

[9] = Helianthus annuus, 336 h, foliar post-emergent, scored after 14 days, read-out: % Visual Growth Reduction HELAN
[10] = Viola tricolor, 336 h, foliar post-emergent, scored after 14 days, read-out: % Visual Growth Reduction VIOTR
[11] = Amaranthus retroflexus, 336 h, foliar post-emergent, scored after 14 days, read-out: % Visual Growth Reduction AMARE
[12] = Amaranthus retroflexus, 336 h, 140 g ai/ha, foliar post-emergent, scored after 14 days, read-out: % Visual Growth Reduction AMARE
[13] = calculated, dose for 80% visual injury, prior art tables

Row | Structure (SMILES) | plant injury at 140 g/ha [1] [%] | plant injury at 280 g/ha [1] [%] | plant injury at 140 g/ha [2] [%] | plant injury at 280 g/ha [2] [%] | pest or weed control at 140 g/ha [3, 9] [%] | pest or weed control at 280 g/ha [3, 9] [%] | GR80 Value HELAN [3] [g ai/ha] | pest or weed control at 140 g/ha [4, 10] [%] | pest or weed control at 280 g/ha [4, 10] [%] | GR80 Value VIOTR ([4]; dose for 80% visual injury) [g ai/ha] | pest or weed control at 70 g/ha [5, 11] [%] | pest or weed control at 140 g/ha [5, 12] [%] | pest or weed control at 280 g/ha [5, 11] [%] | GR80 Value AMARE [5] [g ai/ha] | pest or weed control at 140 g/ha [6] [%] | pest or weed control at 280 g/ha [6] [%] | pest or weed control at 140 g/ha [7] [%] | pest or weed control at 280 g/ha [7] [%] | pest or weed control at 140 g/ha [8] [%] | pest or weed control at 280 g/ha [8] [%] | also measured
1 | COC(=O)c1nc(CF)c(Cl)c(N)c1Cl [Compound F1, Methyl 4-amino-3,5-dichloro-6-(fluoromethyl)picolinate] | 0 | 0 | 0 | 0 | 100 | 100 | <17.5 | 10 | 10 | >280 | 60 | 80 | 90 | 142 | 100 | 100 | 90 | 90 | 0 | 0 | plant injury at 35 g/ha [1]: 0%; plant injury at 70 g/ha [1]: 0%; plant injury at 35 g/ha ([2]; 35 g ai/ha): 0%; plant injury at 70 g/ha [2]: 0%; pest or weed control at 35 g/ha ([3]; Helianthus annuus, 336 h, 35 g ai/ha, foliar post-emergent, scored after 14 days, read-out: % Visual Growth Reduction HELAN): 100%; pest or weed control at 70 g/ha [3, 9]: 100%; pest or weed control at 35 g/ha ([4]; Viola tricolor, 336 h, 35 g ai/ha, foliar post-emergent, scored after 14 days, read-out: % Visual Growth Reduction VIOTR): 0%; pest or weed control at 70 g/ha [4, 10]: 0%; pest or weed control at 35 g/ha ([5]; Amaranthus retroflexus, 336 h, 35 g ai/ha, foliar post-emergent, scored after 14 days, read-out: % Visual Growth Reduction AMARE): 55%; pest or weed control at 35 g/ha [6]: 100%; pest or weed control at 70 g/ha [6]: 100%; GR80 Value EPHHL [6]: 26.2 g ai/ha; pest or weed control at 35 g/ha [7]: 90%; pest or weed control at 70 g/ha [7]: 90%; GR80 Value CHEAL [7]: 17.5 g ai/ha; pest or weed control at 35 g/ha [8]: 0%; pest or weed control at 70 g/ha [8]: 0%; GR80 Value ECHCG ([8]; dose for 80% visual injury): >280 g ai/ha
2 | COC(=O)c1nc(CC(F)F)c(F)c(N)c1Cl [Compound F2, methyl 4-amino-3-chloro-6-(2,2-difluoroethyl)-5-fluoropicolinate] | 0 |  | 0 |  | 80 |  | 80.8 | 0 |  | >140 |  | 100 |  | 103 | 100 |  | 90 |  | 0 |  | GR80 Value EPHHL [6]: 114 g ai/ha; GR80 Value CHEAL [7]: 103 g ai/ha; GR80 Value ECHCG ([8]; dose for 80% visual injury): >140 g ai/ha
3 | COC(=O)c1nc(C(F)F)c(F)c(N)c1Cl [Compound F3, methyl 4-amino-3-chloro-6-(difluoromethyl)-5-fluoropicolinate] | 0 | 10 | 0 | 0 | 90 | 90 | 32.5 | 5 | 10 | >280 | 5 | 50 | 90 | 112 | 75 | 85 | 100 | 100 | 0 | 10 | plant injury at 70 g/ha [1]: 0%; plant injury at 70 g/ha [2]: 0%; pest or weed control at 70 g/ha [3, 9]: 90%; pest or weed control at 70 g/ha [4, 10]: 0%; pest or weed control at 70 g/ha [6]: 50%; GR80 Value EPHHL [6]: 193 g ai/ha; pest or weed control at 70 g/ha [7]: 100%; GR80 Value CHEAL [7]: <17.5 g ai/ha; pest or weed control at 70 g/ha [8]: 0%; GR80 Value ECHCG ([8]; dose for 80% visual injury): >280 g ai/ha
4 | COC(=O)c1nc(CCC(F)(F)F)c(Cl)c(N)c1Cl [Compound F5, methyl 4-amino-3,5-dichloro-6-(3,3,3-trifluoropropyl)picolinate] |  | 0 |  | 0 |  | 60 |  |  | 0 |  |  |  | 0 |  |  | 0 |  | 0 |  | 0 | 
5 | C=C(F)c1cc(N)c(Cl)c(C(=O)OC)n1 [Compound F6, methyl 4-amino-3-chloro-6-(1-fluorovinyl)picolinate] |  | 0 |  | 0 |  | 20 |  |  | 0 |  |  |  | 40 |  |  | 60 |  | 90 |  | 0 | 
6 | COC(=O)c1nc(C(F)(F)F)cc(N)c1Cl [Prior Art 1, reference compound] |  |  |  |  |  |  |  | 95 |  |  | 80 | 100 |  |  | 95 |  | 100 |  | 0 |  | plant injury at 35 g/ha [1]: 0%; % Visual Growth Reduction ORYSA ([2]; 35 g ai/ha): 0%; plant injury at 35 g/ha ([2]; 35 g ai/ha): 0%; GR80 Values VIOTR [4, 13]: 121 g/ha; % Visual Growth Reduction AMARE ([5]; 140 g ai/ha, foliar post-emergent, scored after 14 days): 100%; pest or weed control at 35 g/ha [6]: 80%; pest or weed control at 70 g/ha [6]: 85%; pest or weed control at 35 g/ha [7]: 80%; pest or weed control at 70 g/ha [7]: 85%; pest or weed control at 35 g/ha [8]: 0%; pest or weed control at 70 g/ha [8]: 0%; GR80 Values ECHCG [8, 13]: >140 g/ha
